Source: patent publication US3983239A, “Hexahydro-γ-carboline derivatives and their salts” (priority 1974, dated 1976)
Entries after “also recorded” stand apart in the source; their conditions may differ. Read-outs that look alike come from different tables or passages of the source.

How the values were obtained:
muscle relaxant activity = assay: Muscle relaxant activity, rats; assay type: in vivo; details: Rattus norvegicus, rats, read-out: ED50 value, muscle relaxant activity
central nervous system = assay: Depression of the central nervous system (overall); details: in vivo
Excerpt: 2. Depression of the central nervous system The compounds of the present invention show the same central nervous system depressing pattern as the existing neuroleptics, such as an inhibiting activity of locomotion, an inhibiting activity of conditioned avoidance response, a cataleptogenic activity, a muscle relaxant activity, an inhibiting activity of self-stimulation, and an anti-methamphetamine activity in terms of locomotor activity.

[1] = cited from earlier work
[2] = tested on: conditioned avoidance response; assay: Inhibiting activity of conditioned avoidance response, mice; assay type: in vivo; details: Mus musculus, po; mice, p.o.; read-out: ED50 value, inhibiting activity of conditioned avoidance response
locomotion [3] = assay: Inhibiting activity of locomotion, mice (Animex method); assay type: in vivo; details: Mus musculus, po; mice, p.o.; read-out: ED50 value, inhibiting activity of locomotion
amphetamine = details: in vivo; cited from earlier work
catalepsy = assay: Cataleptogenic activity, rats; assay type: in vivo; details: Rattus norvegicus, po; rats, p.o.; read-out: ED50 value, cataleptogenic activity
[4] = tested on: conditioned avoidance response; assay: Inhibiting activity of conditioned avoidance response, rats (Shuttle box method); assay type: in vivo; details: Rattus norvegicus, po; rats, p.o.; read-out: ED50 value, inhibiting activity of conditioned avoidance response
[5] = tested on: methamphetamine-induced stereotypy; assay: Potentiation of methamphetamine-induced stereotypy; assay type: in vivo, male Wistar HLA rats; parameters: key: ---: Marked antagonism; --: Moderate antagonism; -: Slight antagonism; 0: No interaction; +: Slight potentiation; ++: Moderate potentiation; +++: Marked potentiation; details: methamphetamine 2 mg/kg i.p.
Procedure: 1. Potentiation of methamphetamine-induced stereotypy
This test was carried out by a modified method of R. T. Naylor (Life Sci., Vol. 10, page 909, 1971).
To male Wistar HLA rats, weighing 200 to 250 g (each group: 6 rats), were intraperitoneally administered the compounds to be tested. After 20 minutes, methamphetamine (2 mg/kg) was intraperitoneally administered to the test animals, and then the appeared stereotypy was observed. The effects of the test compounds were evaluated by the intensity of the stereotypy and the termination thereof.

self-stimulation = assay: Inhibiting activity of self-stimulation, rats; assay type: in vivo; details: Rattus norvegicus, po; rats, p.o.; read-out: ED50 value, inhibiting activity of self-stimulation
Excerpt: 8) J. Olds et al; J. Comp. Physiol. Psychol., Vol. 47, page

Acute toxicity, mice = details: mouse, in vivo, observed 7 days
Excerpt: (§1) Male and female STD-dd Y mice, weighing 20 to 22 g (each group: 10 mice) and male Wistar HLA rats, weighing 250 to 300 g (each group: 10 to 20 rats) were used.

locomotion [6] = assay: Inhibiting activity of locomotion, rats (Open-field method); assay type: in vivo; details: Rattus norvegicus, rats, read-out: ED50 value, inhibiting activity of locomotion
Excerpt: 3) Open-field method [C.S. Hall; J. Comp. Physiol. Psychol.

[7] = tested on: apomorphine-induced gnawing; assay: Enhancement of apomorphine-induced gnawing; assay type: in vivo; details: 0.03-0.7 mg/kg s.c., rats
[8] = tested on: homovanillic acid (HVA) in brain; assay: Effect on homovanillic acid (HVA) in brain; assay type: in vivo, male Wistar rats; details: Rattus norvegicus, read-out: dose that remarkably increased the HVA in the brain
Procedure: 3. Effect on homovanillic acid (HVA for short) in brain
This test was carried out by a modified method of T. Karasawa et al. [Life Sci., Vol. 15, page 1465 (1974)].
To male Wistar rats, weighing 160 to 200 g (each group: 5 rats), was administered 8-methyl-2-[γ-(p-fluorobenzoyl)propyl]-2,3,4,4a,5,9b-hexahydro-1H-pyrido[4,3-b]indole dihydrochloride (Compound A) intraperitoneally or orally. After 90 minutes in case of the intraperitoneal administration, or after 6 hours in case of the oral administration, the test animals were decapitated, and then the HVA in the brain was measured by a fluorometric method.

[9] = tested on: electroencephalogram (EEG); assay: Activation of the electroencephalogram (EEG); assay type: in vivo; details: 5 mg/kg i.v., gallamine immobilized cats
Acute toxicity, rats = details: rat, in vivo, male, observed 7 days
Excerpt: as §1

Compound | ED50 (muscle relaxant activity; ip, i.p.) [mg/kg] | ED50 (muscle relaxant activity; po, p.o.) [mg/kg] | ED50 [2] [mg/kg] | ED50 (locomotion [3]) [mg/kg] | ED50 (catalepsy) [mg/kg] | ED50 [4] [mg/kg] | Stereotypy Intensity ([5]; 1.0 mg/kg i.p.) | Stereotypy Termination ([5]; 1.0 mg/kg i.p.) | Stereotypy Intensity ([5]; 2.0 mg/kg i.p.) | Stereotypy Termination ([5]; 2.0 mg/kg i.p.) | Stereotypy Intensity ([5]; 5.0 mg/kg i.p.) | Stereotypy Termination ([5]; 5.0 mg/kg i.p.) | Stereotypy Intensity ([5]; 10.0 mg/kg i.p.) | Stereotypy Termination ([5]; 10.0 mg/kg i.p.) | ED50 (self-stimulation) [mg/kg] | LD50 at 168 h (Acute toxicity, mice; ip, male) [mg/kg] | LD50 at 168 h (Acute toxicity, mice; iv, male) [mg/kg] | LD50 at 168 h (Acute toxicity, mice; po, male) [mg/kg] | LD50 at 168 h (Acute toxicity, mice; sc, male) [mg/kg] | ED50 (locomotion [6]; ip, i.p.) [mg/kg] | further results
Cc1ccc2c(c1)C1CN(C)CCC1N2 (stereo not drawn) [Dicarbine, 2,8-dimethyl-2,3,4,4a,5,9b-hexahydro-1H-pyrido[4,3-b]indole] | 60.3 | > 100 | 119 | 150 | > 100 | > 100 | 0 | 0 | + | ++ | ++ | +++ | +++ | +++ | > 100 | 153 | 79 | 357 | 237 | 28.7 | central nervous system depressing activities (in words) (central nervous system): far weak in comparison with those of the present compounds; activity in clinical trials [1]: antipsychotic activity and a thymoleptic activity; activity against amphetamine (amphetamine): antagonism against amphetamine and also an activity of potentiating the amphetamine-induced stereotypy; ED50 (locomotion [6]; po, p.o.): > 200 mg/kg
Cc1ccc2c(c1)C1CN(CCCC(=O)c3ccc(F)cc3)CCC1N2.Cl.Cl (stereo not drawn) [Compound A, 8-Methyl-2-[γ-(p-fluorobenzoyl)propyl]-2,3,4,4a,5,9b-hexahydro-1H-pyrido[4,3-b]indole dihydrochloride] | 3.16 | 11.2 | 10 | 9.3 | 34 | 23.8 | 0 | 0 | ++ | ++ | +++ | +++ | +++ | +++ | 61.8 | 134 | 59 | 589 | 373 | 2.8 | central nervous system depressing activities (in words) (central nervous system; dihydrochloride): somewhat inferior to those of chlorpromazine; also recorded: almost comparable to those of clozapine; also recorded: far superior to those of dicarbine; incidence of gnawing after apomorphine [7]: increased the incidence of gnawing; minimal effective dose ([8]; ip, 1.5 h, i.p., 90 minutes after administration): ≥ 5 mg/kg; minimal effective dose ([8]; po, 6 hours after administration): ≥ 13 mg/kg; spontaneous EEG, arousal time in the hippocampus [9]: prolongation of arousal time in the hippocampus; spontaneous EEG, cortex [9]: low-voltage high frequency in the cortex; LD50 at 168 h (Acute toxicity, rats; ip): 146 mg/kg; LD50 at 168 h (Acute toxicity, rats; iv): 51 mg/kg; LD50 at 168 h (Acute toxicity, rats; po): 812 mg/kg; LD50 at 168 h (Acute toxicity, rats; sc): 592 mg/kg; LD50 at 168 h (Acute toxicity, mice; ip, female): 95 mg/kg; LD50 at 168 h (Acute toxicity, mice; po, female): 339 mg/kg; ED50 (locomotion [6]; po, p.o.): 33.2 mg/kg
